Assay results as given in patent US20240118263A1, “TARGET FOR SCREENING ANTI-TUMOR DRUG, USE THEREOF AND SCREENING METHOD THEREFOR” (SHENYANG FUYANG PHARMACEUTICAL TECHNOLOGY CO., LTD., priority 2019, published 2024).
Read-outs that look alike come from different tables or passages of the source. Values belong to the compound of their own block, whether it stands above or below them.

Key:
[1] = target: SelH (Homo sapiens, UniProt Q8IZQ5, U44C); test: Surface plasmon resonance (SPR) detection of affinity between compounds and SelH; type: binding; settings: for binding activity to the SelH (in words): ranking within the table's compounds
Excerpt: A Cys-deficient Escherichia coli expression system was adopted, which is an effective method to prepare selenoprotein found in recent years. Itsbasic principle is as follows: the characteristic that Cys transfer RNA (tRNACys) can bind to Sec was utilized, and a culture medium which is lack of cysteine (Cys) and rich in Selenium cysteine (Sec) was used for culturing a strain, so that Sec was successfully incorporated into newly expressed protein. According to existing literature reports, a human SelH gene sequence was obtained. Selenocysteine of the SelH is in the middle of the sequence and was terminated here during prokaryotic expression, so that the selenocysteine was mutated from a triple codon TGA of the selenocysteine into TGC, which was synthesized by the Sangon Bioengineering (Shanghai) Co., Ltd. In addition, the adopted SPP system was a single protein production system, and a principle of the SPP system was to induce MazF enzyme (mRNA interfering enzyme for cutting RNA on an ACA nucleotide sequence) to cause growth arrest of thalli. The enzyme can specifically recognize and cut the ACA sequence and prevent synthesis of other background proteins in bacteria. Therefore, when mRNA of the desired target protein was encoded, if the mRNA can be designed into a form lacking an ACA base triplet according to an amino acid encoding rule and was induced at 15° C. by using a pCold vector in cells expressing MazF, the mRNA was not enzymatically hydrolyzed, only a protein derived from the mRNA was generated, and there was little synthesis of other cell proteins.
A pColdI-selH plasmid was transformed into BL21 (DE3) Cys-deficient Escherichia coli, so as to obtain a defective expression bacterium pColdI-selH. Sec was added during culture, making it become selenium-containing protein. The target protein was purified by using Ni^2+ column chelating chromatography, and impure protein was eluted by using an imidazole eluent of different concentrations to finally obtain the target protein. Soluble SelH protein was finally obtained, and SDS-PAGE (sodium dodecyl sulfate polyacrylamide gel electrophoresis) analysis was carried out.
A surface plasmon resonance (SPR) method was adopted to detect the interaction condition of a small molecule and a protein, so that the screening of drugs targeting SelH was carried out.
Purified SelH was diluted into a 50 μg/mL protein solution by using 10 mM sodium acetate with a pH value of 5.5, the purified SelH was fixed onto a CM5 chip by an amino coupling method by using Biacore 8K (GE Healthcard, Sweden), and an RU value was recorded.
An isopentenyl or isovaleryl substituted coumarin compound, or a triterpenoid compound with an isopentenyl-like structure (the compound specifically includes aurapten, protopanaxadiol, iso-imperatorin, decursin, osthol, notoginsenoside R1 and shionon) was dissolved in 100% DMSO to be prepared into solutions containing 5% DMSO of different concentrations (0, 31.25, 62.5, 125, 250 and 500 μM) by using a 1.05×PBS-P^+ buffer solution (GE Healthcare, obtained by diluting 10×PBS-P^+).
A single-cycle kinetics method was adopted, the 1.05×PBS-P^+ buffer solution containing 5% DMSO was used as a Running Buffer, different compounds of different concentrations flowed through the SelH fixed onto the chip, wherein the binding time was 120 s, and the change condition of the RU value was recorded. An equilibrium dissociation constant (KD) was calculated by using software in Biacore 8K so as to evaluate the binding affinity between the protein and the compounds. The SPR detection result of the affinity between compounds and SelH in Embodiment 2 of the present disclosure is as shown in FIG. 1A-G, and the result statistics is as shown in Table 1.
(1) Screening of small molecule drugs by taking SelH as a target A surface plasmon resonance (SPR) method was adopted to detect the interaction condition of a small molecule and a protein, so that the screening of drugs targeting SelH was carried out. […]

[2] = system: mouse melanoma B16-BL6 cells; test: cells; type: cell-based
Excerpt: MTT reduction method is used.

[3] = system: mouse breast cancer 4T1 cells; test: MTT in-vitro anti-tumor activity test, 4T1; settings: read-out: IC50 cytotoxic effect on 4T1
Description: (§1) Experimental Materials Human non-small cell lung cancer cells A549, mouse breast cancer cells 4T-1 and mouse melanoma B16-BL6 were purchased from American Type Current Collection (ATCC, Rockville, MD, USA). An RPMI-1640 culture solution containing 10% of fetal calf serum and 2% of glutamine was inoculated with the A549, 4T-1 and B16-BL6 cells, and the cells were incubated at 37° C. in a 5% CO2 incubator.
(§2) The compounds were dissolved in DMSO under a sterile condition, and the obtained solutions were diluted to required concentrations by using an RPMI 1640 culture solution, wherein the final concentration of the DMSO was less than 0.5%.
(§3) A549, 4T-1 and B16-BL6 were used as adherent cells, adherent tumor cells in a logarithmic phase were selected, digested with pancreatin, and then prepared into a cell suspension of 5×10^4/ml with a culture medium containing 10% of calf serum, a 96-well culture plate was inoculated with the cell suspension, wherein each well contained 100 μl of the cell suspension, and incubation was carried out for 24 h at 37° C. and 5% CO2. Replacing was carried out with a new culture solution containing the samples to be detected of different concentrations in the experimental groups, replacing was carried out with a culture solution containing a same volume of solvent in the control group, three parallel wells were set in each group, and incubation was carried out for 48 hours at 37° C. and 5% CO2. The supernate was discarded, careful washing was carried out with PBS twice, 100 μl of a freshly prepared culture medium containing 0.5 mg/ml of MTT was added into each well, and incubation was continued to be carried out at 37° C. for 4 h. The supernatant was carefully discarded, 150 μl of DMSO was added, uniform mixing was carried out for 10 min by using a micro oscillator, and the optical density value was measured at 492 nm by using a microplate reader.
(§4) Tumor cell growth inhibition ratio (%)=[A492 (negative control)−A492 (dosing group)]/A492 (negative control)×100%
(§5) The median inhibitory concentration (IC50) of the sample is calculated.

[4] = system: human non-small cell lung cancer cells A549; test: MTT in-vitro anti-tumor activity test, A549
Description: as §1, §2, §3, §4, §5

[5] = system: mouse breast cancer 4T1 cells
Description: as §1, §2, §3, §4, §5

[6] = system: human non-small cell lung cancer cells A549
Description: as §1, §2, §3, §4, §5

[7] = SPR Biacore 8K, single-cycle kinetics, Table 2, read-out: Dissociation constant KD of compounds and SelH
[8] = SPR Biacore 8K, single-cycle kinetics, Table 1, read-out: Dissociation constant KD of compounds and SelH
[9] = read-out: IC50 cytotoxic effect on B16-BL6, MTT, 48 hours, Table 1
[10] = read-out: IC50 cytotoxic effect on A549, MTT, 48 hours, Table 1
[11] = Mus musculus, B16-BL6, 48 h, read-out: IC50 cytotoxic effect on B16-BL6
[12] = SPR Biacore 8K, single-cycle kinetics, Table 3, read-out: KD binding of macrolides and cyclic peptides to SelH
[13] = Homo sapiens, A549, 48 h, read-out: A549 IC50 cytotoxicity
[14] = Mus musculus, B16-BL6, read-out: IC50 cytotoxic effect on B16-BL6, MTT, 48 hours, Table 1
[15] = Homo sapiens, A549, 48 h, read-out: IC50 cytotoxic effect on A549

Kd [1, 7]: 4030 µM
binding activity to the SelH (in words) [1]: weakest
SMILES: CC(C)=CCc1c(-c2ccc(O)cc2O)oc2c3c(cc(O)c2c1=O)OC(C)(C)C=C3 [Morusin, morusin]
IC50 ([2]; Mus musculus, B16-BL6, read-out: IC50 cytotoxic effect on B16-BL6, MTT, 48 hours, Table 2): 37.9 µM

SMILES: CC(C)=CCCC(C)(O)[C@H]1CC[C@]2(C)[C@@H]1[C@H](O)C[C@@H]1[C@@]3(C)CC[C@H](O)C(C)(C)[C@@H]3CC[C@]12C (stereo in doubt) [Protopanaxadiol, protopanoxadiol]
Kd [1, 8]: 6.71e-05 µM
binding activity to the SelH (in words) [1]: strongest
IC50 [2, 9]: 58 µM
IC50 ([3]; MTT, 48 hours): 30.9 µM
IC50 [4, 10]: 54.4 µM

SMILES: CC(=O)O[C@H](CC=C(C)C)C1=CC(=O)c2c(O)ccc(O)c2C1=O [Acetyl Shikonin, acetyl shikonin]
Kd [1]: 0.000464 µM
binding activity to the SelH (in words) [1]: strongest
IC50 [2, 11]: 4.44 µM

Kd [1, 8]: 1.53e-05 µM
IC50 [2]: 61.9 µM
IC50 [5]: 37.7 µM
IC50 [6]: 51.9 µM
SMILES: CC(C)=CCC/C(C)=C/COc1ccc2ccc(=O)oc2c1 [Aurapten, aurapten]

SMILES: CC(C)=CC[C@@H](O)C1=CC(=O)c2c(O)ccc(O)c2C1=O [Shikonin, shikonin]
Kd [1]: 5.42 µM
IC50 [2, 11]: 13 µM

Kd [1, 7]: 2.43 µM
IC50 [2]: 29 µM
SMILES: COc1cc(O)c(CC=C(C)C)c2c1C(=O)CC(c1ccc(O)cc1)O2 (stereo not drawn) [Isoxanthohunol, isoxanthohunol]

SMILES: CC(C)=CCC[C@](C)(O[C@@H]1O[C@H](CO)[C@@H](O)[C@H](O)[C@H]1O)[C@H]1CC[C@]2(C)[C@@H]1[C@H](O)C[C@@H]1[C@@]3(C)CC[C@H](O)C(C)(C)[C@@H]3[C@@H](O[C@@H]3O[C@H](CO)[C@@H](O)[C@H](O)[C@H]3O[C@@H]3OC[C@@H](O)[C@H](O)[C@H]3O)C[C@]12C [Notoginsenoside R1, notoginsenoside R1]
Kd [1, 8]: 563 µM
binding activity to the SelH (in words) [1]: weakest
IC50 [2, 9]: 111 µM
IC50 [5]: 100 µM
IC50 [6]: 126 µM

Kd [1, 12]: 10.4 µM
SMILES: CC[C@H]1OC(=O)[C@H](C)[C@@H](O[C@H]2C[C@@](C)(OC)[C@@H](O)[C@H](C)O2)[C@H](C)[C@@H](O[C@@H]2O[C@H](C)C[C@H](N(C)C)[C@H]2O)[C@](C)(O)C[C@@H](C)C(=O)[C@H](C)[C@@H](O)[C@]1(C)O [Erythromycin, erythromycin]
IC50 [4, 13]: 230 µg/mL

SMILES: C=C(NC(=O)C(=C)NC(=O)c1csc(C2=N[C@@H]3c4csc(n4)[C@H]4NC(=O)c5csc(n5)[C@H]([C@](C)(O)[C@@H](C)O)NC(=O)[C@H]5CSC(=N5)/C(=C/C)NC(=O)[C@H]([C@@H](C)O)NC(=O)c5csc(n5)[C@]3(CC2)NC(=O)[C@H](C)NC(=O)C(=C)NC(=O)[C@H](C)NC(=O)[C@H]([C@@H](C)CC)N[C@@H]2C=Cc3c([C@H](C)O)cc(nc3[C@H]2O)C(=O)O[C@@H]4C)n1)C(N)=O [Thiostrepton, thiostrepton]
Kd [1, 12]: 19.9 µM
IC50 [4, 13]: 9.66 µg/mL

Kd [1, 12]: 4.38 µM
SMILES: CO[C@@H]1[C@@H](O[C@@H]2O[C@H](C)[C@@H](O[C@H]3C[C@@](C)(O)[C@@H](O)[C@H](C)O3)[C@H](N(C)C)[C@H]2O)[C@@H](CC=O)C[C@@H](C)[C@@H](O[C@H]2CC[C@H](N(C)C)[C@@H](C)O2)/C=C/C=C/C[C@@H](C)OC(=O)C[C@H]1O [Spiramycin, spiramycin]
A549 IC50 cytotoxicity ([4]; MTT, 48 hours, Table 3): 18.33 µg/mL

Kd [1, 8]: 0.00205 µM
SMILES: CC(C)=CC(=O)O[C@H]1Cc2cc3ccc(=O)oc3cc2OC1(C)C [Decursin, decursin]
IC50 [2, 14]: 67.8 µM
IC50 ([3]; Mus musculus, 4T1, 48 h): 38.2 µM
IC50 [4, 15]: 60 µM

SMILES: CC(C)=CCC[C@]1(C)CC[C@]2(C)[C@H]3CC[C@@]4(C)[C@@H](CCC(=O)[C@@H]4C)[C@]3(C)CC[C@@]2(C)C1 [Shionon, shionon]
Kd [1, 8]: 0.00676 µM
IC50 [2, 9]: 93.9 µM
IC50 ([3]; MTT, 48 hours): 82.4 µM
IC50 [4, 10]: 92.7 µM

SMILES: COc1c(O)cc2oc3cc(O)c(CC=C(C)C)c(O)c3c(=O)c2c1CC=C(C)C [α-mangostin]
Kd [1, 7]: 398 µM
IC50 ([2]; read-out: IC50 cytotoxic effect on B16-BL6, MTT, 48 hours, Table 2): 40.2 µM

Kd [1, 12]: 4.4 µM
SMILES: CO[C@@H]1[C@@H](O[C@@H]2O[C@H](C)[C@@H](O[C@H]3C[C@@](C)(O)[C@@H](OC(=O)CC(C)C)[C@H](C)O3)[C@H](N(C)C)[C@H]2O)[C@@H](CC=O)C[C@@H](C)C(=O)/C=C/[C@@H]2O[C@H]2C[C@@H](C)OC(=O)C[C@H]1OC(C)=O [Carbomycin, carbomycin]
A549 IC50 cytotoxicity [6]: 11.79 µg/mL

SMILES: COc1ccc2ccc(=O)oc2c1CC=C(C)C [Osthol, osthol]
Kd [1, 8]: 0.0851 µM
IC50 [2, 9]: 100 µM
IC50 ([3]; MTT, 48 hours): 67.4 µM
IC50 [4, 10]: 81.2 µM

Kd [1, 12]: 537 µM
binding activity to the SelH (in words) [1]: weakest
SMILES: CC[C@H]1OC(=O)[C@H](C)[C@@H](O[C@H]2C[C@@](C)(OC)[C@@H](O)[C@H](C)O2)[C@H](C)[C@@H](O[C@@H]2O[C@H](C)C[C@H](N(C)C)[C@H]2O)[C@](C)(O)C[C@@H](C)CN(C)[C@H](C)[C@@H](O)[C@]1(C)O [Azithromycin, azithromycin]
IC50 [4, 13]: 72.4 µg/mL

SMILES: CC(C)=CCOc1c2ccoc2cc2oc(=O)ccc12 [Iso-imperatorin, iso-imperatorin]
Kd [1, 8]: 7.53e-05 µM
binding activity to the SelH (in words) [1]: strongest
IC50 [2, 14]: 75.2 µM
IC50 ([3]; Mus musculus, 4T1, 48 h): 48.9 µM
IC50 [4, 15]: 72.5 µM
